# Source: article PMC11134331, “Cell-active small molecule inhibitors validate the SNM1A DNA repair nuclease as a cancer target” (Chemical Science, 2024)
# Biological target: T1, SNM1A (Homo sapiens, UniProt Q6PJP8)
# T1 sequence (Q6PJP8 676-1040): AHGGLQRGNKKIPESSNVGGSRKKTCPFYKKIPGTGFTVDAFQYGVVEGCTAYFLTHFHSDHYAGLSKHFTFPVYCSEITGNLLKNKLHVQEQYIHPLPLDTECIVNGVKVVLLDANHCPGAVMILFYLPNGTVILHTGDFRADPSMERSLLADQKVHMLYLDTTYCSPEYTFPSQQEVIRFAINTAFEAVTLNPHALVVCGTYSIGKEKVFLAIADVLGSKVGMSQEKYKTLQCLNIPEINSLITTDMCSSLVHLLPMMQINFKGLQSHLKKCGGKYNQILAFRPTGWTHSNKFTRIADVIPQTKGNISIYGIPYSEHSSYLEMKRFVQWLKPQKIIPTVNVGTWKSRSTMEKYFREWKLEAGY
# Assay: real-time fluorescence-based nuclease assay, SNM1A
# Format: biochemical
# Design: DNA encoding for the MBL and β-CASP domains of SNM1A (aa 676–1040) was cloned into the baculovirus transfer vector pFB-LIC-Bse; inferred from vector pFB-LIC-Bse and the IMAC purification; made in house; host or cells: Sf9 insect cells (baculovirus)
# Settings: SNM1A IC50, real-time fluorescence-based nuclease assay; resynthesised compounds
# Description: In brief, the fluorescence-based nuclease assay utilises a chemically modified 20-nucleotide ssDNA substrate with a fluorescein isothiocyanate (FITC) derived 5′-group and an internal black-hole-quencher-1 (BHQ-1), located eight nucleotides distal to the fluorescein group. In the intact substrate the BHQ-1 suppresses fluorescence, however, exonucleolytic digestion of the substrate from the 5′ end by SNM1A uncouples the BHQ-1 and FITC moieties (see Fig. 1D). Spectra were measured every 140 seconds with an increase in fluorescence indicating enzymatic activity by SNM1A (concentration: 0.1 nM).
# Fluorescence-based nuclease digestion SNM1A–C assays were performed as described.[30,45] In the case of SNM1A and SNM1B, a 20-mer oligonucleotide with a 5′ FITC-conjugated-T and an internal BHQ-1 (black hole quencher) conjugated-T, eight nucleotides distal (3′) to the fluor was utilised; whereas for SNM1C a 20-mer oligonucleotide with a 5′ FITC-conjugated-T and a 3′ BHQ-1(black hole quencher) was used to capture all possible endonucleolytic incisions. Reactions (25 μL) were performed in 384 well microplates in nuclease buffer (20 mM HEPES-KOH pH 7.5, 50 mM KCl, 10 mM MgCl2, 0.5 mM TCEP, 0.05% (v/v) Triton-X, 0.1 mg mL^−1 BSA, 5% (v/v) glycerol) with SNM1A/B/C (0.1 nM SNM1A, 0.5 nM SNM1B and 1 nM SNM1C) as indicated. Proteins were incubated for 10 min at RT with the stated compound where applicable, before the reaction was initiated with the addition of 10 nM DNA substrate. […] Fluorescence spectra were measured every 140 s, for 35 min, at 37 °C. The fluorescence intensity of each well was plotted against compound concentration and fitted using a log (inhibitor) response curve using GraphPad Prism software (GraphPad Software, Inc., La Jolla, CA, USA).
smiles,measurement,value
C[C@H](Nc1nc(NCc2ccco2)nc2ccc(Cl)cc12)C(=O)NO [compound 19],IC50,44 µM
